According to patent US4107165A, “Tris[tetrahydroisoquinoline] compounds” (Endo Laboratories, priority 1976, dated 1978):

Experiments:
[1] = test system: whole blood clot; assay: whole blood clot lysis method (fibrinolytic activity), blood from rats given compound intraperitoneally; type: in vivo; conditions: Rattus norvegicus, ip, 4 h, intraperitoneal, blood diluted 1:10, clotted with thrombin, 37° C, four hours, read-out: ED50 (dose which causes lysis of 50% of the clot)
Procedure: Certain representative compounds within the scope of the present invention have been tested for fibrinolytic activity by the whole blood clot lysis method, as modified from the procedure of Billimoria et al.^1 In this method, blood from rats given a fibrinolytic compound intraperitoneally is taken and diluted 1:10. A standard amount is clotted with thrombin, incubated at 37° C for four hours, and the amount of clot that has lysed is determined. […] These ED50 values for the various compounds tested are set forth in the following table, each of the compounds being identified by name and by the number of the ensuing example in which its synthesis is described. […] ^1 Billimoria, […]., James, […]., Lancet II, 471 (1959)

[2] = test system: ADP-induced platelet aggregation; assay: inhibition of ADP-induced platelet aggregation in platelet rich plasma; type: cell-based; conditions: 5 min; human platelet rich plasma, 37° C, five minutes incubation prior to ADP; read-out: ED50 (amount which reduces platelet aggregation by 50%)
Procedure: Another selection of representative compounds within the scope of the present invention, including some listed in the previous table, have been tested for their ability to inhibit platelet aggregation. Citrated whole blood from human volunteers, who had not taken any medicine for the previous week, was centrifuged to obtain platelet rich plasma. On addition of ADP (adenosine diphosphate) to this platelet rich plasma, incubated at 37° C with constant stirring, in an aggregometer, optical density changes can be observed which are caused by platelet aggregation. Thus, the extent of ADP-induced platelet aggregation is determined for each sample of blood used. Compounds to be tested were incubated for five minutes prior to the addition of ADP. The ED50 of a compound is that amount, in γ/ml, which reduces platelet aggregation by 50% under the above conditions.

[3] = test system: rats; assay: toxicity, intraperitoneal administration to rats; type: in vivo; conditions: at 0.01 mg./kg. and at 10 mg./kg.
Excerpt: An outstanding feature of the compounds of this invention is their relative lack of toxicity. Although they are active at very low dose levels, it is possible to exceed minimum effective levels by wide margins without encountering serious adverse reactions. This permits the compounds to be used within wide limits without concern about undesirable side effects, as are so frequently encountered upon inadvertent overdosage of other substances of great potency.

Structure (SMILES): COc1cc2c(cc1OC)C(CCCCC(CCC1NCCc3cc(OC)c(OC)cc31)CCC1NCCc3cc(OC)c(OC)cc31)NCC2.Cl.Cl.Cl (stereo not drawn) [Example 1.1, 1,1'-{3-[2-(1,2,3,4-tetrahydro-6,7-dimethoxy-1-isoquinolinyl)ethyl]heptamethylene}bis[1,2,3,4-tetrahydro-6,7-dimethoxyisoquinoline] trihydrochloride]
- ED50 [1]: 0.02 mg/kg
- IC50 [2]: 6 µg/mL
- toxicity [3]: without producing toxicity
